Data set [1] can be described thus: Thermodynamic stability of crystal forms. Particulars: among free acid crystal forms of Compound II.
Data set [2] is described as follows: Hygroscopicity of the crystalline form. The format is physicochemical. Particulars: solid crystalline form.

`CC[C@@H](Oc1cccc(Cn2c(C)c(C(=O)c3ccc(Cl)cc3)c3ccc(OC(F)(F)F)cc32)c1)C(=O)O` [Acid Form C, (2R)-2-{3-[[3-(4-chlorobenzoyl)-2-methyl-6-(trifluoromethoxy)-1H-indol-1-yl]methyl]phenoxy}butyric acid]: the “thermodynamic stability of crystal form” value in data set [1] is “thermodynamically stable”; in data set [1] (listed as Form C free acid) it was “most thermodynamically stable acid form”.
Take `CC[C@@H](Oc1cccc(-n2c(C)c(C(=O)c3ccc(OC)cc3)c3ccc(OC(F)(F)F)cc32)c1)C(=O)O` [crystalline dihydrate, (2R)-2-{3-[3-(4-methoxybenzoyl)-2-methyl-6-(trifluoromethoxy)-1H-indol-1-yl]phenoxy}butanoic acid]: in data set [2], the hygroscopicity entry is reported as “non-hygroscopic”.
